The results in this text go back to US20080206149A1, “METHOD, DYE AND MEDICAMENT FOR STAINING THE INTERNAL LIMITING MEMBRANE, EPIRETINAL MEMBRANE, THE VITREOUS AND/OR THE CAPSULE OF AN EYE” (LUDWIG-MAXIMILIANS-UNIVERSITAT MUNCHEN, priority 2005, published 2008).

Series [1] relates to primary RPE cells. Description: Life-dead assay (propidium iodide / Hoechst 33342), primary RPE cells. The series is classed as cell-based. As for the experimental part: Invest Ophthalmol Vis Sci 2002; 43: 3575-82.
(§1) Confluent RPE and ARPE-19 cells were prepared and treated as described above. Cell viability was quantified based on a two-color fluorescence assay in which the nuclei of nonviable cells appear red because of staining by the membrane-impermeable dye propidium iodide (Sigma), whereas the nuclei of all cells were stained with the membrane-permeable dye Hoechst 33342 (Intergen, Purchase, N.Y.). […] For evaluation of cell viability, cells were washed in PBS and incubated with 2.0 μg/mL propidium iodide and 1.0 μg/mL Hoechst 33342 for 20 minutes at 37° C. Subsequently, cells were analyzed with an epifluorescence microscope (Axioskop; Zeiss, Göttingen, Germany). The labeled nuclei were then counted in fluorescence photomicrographs, and dead cells were expressed as a percentage of total nuclei in the field. The data are based on counts from three experiments performed in duplicate wells, with three to five documented representative fields per well.

The test system of series [2] is epiretinal membranes (ERM). The series can be described thus: Staining of epiretinal membranes removed during intraocular surgery. The note with it: concentration of 1%; dye removed after one minute. As for the experimental part:
(§2) The following four dyes were examined as examples for the inventive dyes in the present study: Light green yellowish SF (LG SF), E68, Bromophenol blue (BPB) and Chicago blue (CB). ICG (Pulsion, Munich, Germany) was used as a reference. All dyes were dissolved and diluted with balanced salt solution (BSS plus; Alcon Laboratories Inc., Fort Worth, Tex.) and concentrations of 1.0, 0.5, 0.2 and 0.05% were obtained. Dry ICG powder was first dissolved with sterile water provided by the manufacturer resulting in a 0.5% solution and then further diluted using BSS plus to a concentration of 0.05%. The dyes were then used to stain lens capsule and epiretinal membranes removed during intraocular surgery. Immediately after removal, the material was placed on a glass slide and covered with a few drops of the dye. After one minute, the dye was carefully removed by irrigation using BSS plus. Lens capsule and epiretinal tissue was then evaluated macroscopically and using light microscopy. The staining effect was subjectively graded as “excellent, good, fair or absent” by one unmasked person and photographs were taken.

Series [3] concerns ARPE-19 cells. The series can be described thus: Life-dead assay (propidium iodide / Hoechst 33342), ARPE-19 cells. The class given is cell-based. As for the experimental part: as §1
Series [4] has as its system lens capsule. Description: Staining of the lens capsule in enucleated porcine eyes. The note with it: injected into air-filled anterior chamber, removed after one minute; clear porcine lens as background. As for the experimental part:
Additionally, the staining characteristics of the lens capsule in enucleated porcine eyes with a postmortem time of nine hours were evaluated. The dyes were injected into the air-filled anterior chamber and removed by irrigation after one minute. Then, the cornea was removed and a capsulorhexis was performed with a bent needle. All procedures were taped on video.

Series [5] has as its system ARPE-19 cells. The series can be described thus: MTT assay, ARPE-19 cells. The note with it: 0.2% and 0.02% dye, 10 minutes exposure, compared to BSS plus control. For orientation: Formazan colour is commonly taken as a measure of viable cells.
Method: ARPE-19 cells, a human retinal pigment epithelial cell line (42), were purchased from ATCC (Manassas, Va., USA) and grown in a 1:1 mixture of Dulbecco's modified Eagles medium and Ham's F12 medium (DMEM/Ham's F12, Biochrom), supplemented with 10% FCS (Biochrom).
For exposure of dyes RPE and ARPE-19 cells were kept for 24 hours under serum free conditions. After washing cells three times with PBS, cells were incubated for 10 minutes with 300 μl of BSS plus containing 0.2% or 0.02% of dye, respectively. […] The dye was then removed by carefully rinsing cells with BSS plus three times. After 24 hours incubation with serum containing media the cell proliferation assay was performed. RPE cells (p3-6) were seeded in 24-well plates and exposed to two concentrations (0.2 and 0.02%) of dyes. BSS plus alone and H2O2, (200 μL/mL) served as controls.
The tetrazolium dye-reduction assay (MTT; 3-[4,5-dimethylthiazol-2-yl]-2,5-diphenyl tetrazolium bromide;) was used to determine cell survival rate. […] The medium was removed, cells were washed with PBS, and 1000 μL/well MTT solution (1.5 mL MTT stock, 2 mg/mL in PBS, plus 28.5 mL DMEM) was added. RPE cells were incubated at 37° C. for 1 hour. The formazan crystals that formed were dissolved by the addition of dimethyl sulfoxide (DMSO; 1000 μL/well). Absorption was measured by a scanning multiwell spectrophotometer at 550 nm (Molecular Probes, Garching, Germany). […] Experiments were performed in triplicate and repeated three times. RPE and ARPE-19 cells of the same passage incubated with BSS without addition of dyes served as control. Statistical comparison between dye concentrations was performed with SPSS (Mann-Whitney-U-Test).
The MTT test as performed in this study is a well established test for the assessment of cell viability, but relies on calorimetric measurement of a blue (550 nm) formazan reaction product. This color overlaps with the absorption spectra of some of the dyes tested. […] Cell monolayers were treated with dyes as per the experiments described above but absorbance readings were performed without prior application of MTT. […]
Series [6] has as its system primary RPE cells. The series can be described thus: MTT assay, primary RPE cells. The note with it: 0.2% and 0.02% dye, 10 minutes exposure, compared to BSS plus control.
From the text: In brief, whole eyes were thoroughly cleansed in 0.9% NaCl solution, immersed in 5% polyvinyl pyrrolidone iodine, and rinsed again in the sodiumchloride solution. The anterior segment from each donor eye was removed and the posterior poles were examined with the aid of a binocular stereomicroscope to confirm the absence of gross retinal disease. Next, the neural retinas were carefully peeled away from the RPE-choroid-sclera using fine forceps. The eye cup was rinsed with Ca^2+ and Mg^2+-free Hank's balanced salt solution, and filled with 0.25% trypsin (GIBCO, Karlsruhe, Germany) for 30 min at 37° C. The trypsin was carefully aspirated and replaced with Dulbecco's modified eagles medium (DMEM, Biochrom, Berlin, Germany) supplemented with 20% fetal calf serum (FCS, Biochrom). Using a pipette, the media was gently agitated, releasing the RPE into the media by avoiding damage to Bruch's membrane. The RPE cell solution was transferred to a 50 ml flask (Falcon, Wiesbaden, Germany) containing 20 ml of DMEM (Biochrom) supplemented with 20% FCS (Biochrom) and maintained at 37° C. and 5% carbon dioxide. […] After having grown to confluency (100%), primary RPE cells were subcultured and maintained in DMEM (Biochrom) supplemented with 10% FCS (Biochrom) at 37° C. and 5% carbon dioxide. Primary RPE of passage 3-6 and ARPE-19 cells were used for experiments.
For exposure of dyes RPE and ARPE-19 cells were kept for 24 hours under serum free conditions. After washing cells three times with PBS, cells were incubated for 10 minutes with 300 μl of BSS plus containing 0.2% or 0.02% of dye, respectively. […] The dye was then removed by carefully rinsing cells with BSS plus three times. After 24 hours incubation with serum containing media the cell proliferation assay was performed. […]
The tetrazolium dye-reduction assay (MTT; 3-[4,5-dimethylthiazol-2-yl]-2,5-diphenyl tetrazolium bromide;) was used to determine cell survival rate. […] Absorption was measured by a scanning multiwell spectrophotometer at 550 nm (Molecular Probes, Garching, Germany). […]
For a further series, the system named is vitreous. Description: Staining of the vitreous during pars plana vitrectomy in porcine eyes. The note with it: graded by two examiners. The class given is in vivo. As for the experimental part: All dyes were dissolved and diluted using balanced salt solution (BSS plus; Alcon Laboratories Inc., Fort Worth, Tex).
Experiments were performed in animals (porcine eyes) and humans after approval of the local ethics committee had been obtained. All experiments were performed in compliance with the Declaration of Helsinki.
Ophthalmic surgery consisted of a standard pars plana vitrectomy. First, the transparent vitreous was removed as completely as possible. Then fluid air exchange was performed in order to avoid an uncontrolled distribution of the dye in the vitreous cavity. The dye was then injected into the air filled globe. After a period of one minute, the dye was washed out by irrigation with BSS. This was followed by an injection of the dye in concentrations from 0.2% to 2%. The staining of the vitreous was graded by two examiners who also performed the surgical procedures.

Series [7] is described as follows: Light absorbing properties (UV/VIS/NIR spectrometer). The note with it: measured up to a content of 0.05% dye. The class given is physicochemical. As for the experimental part:
Light absorption was measured in 0.05% solutions, with BSS plus as a solvent medium. Light absorption was measured instantly after preparation of a stock solution of the dye using a UV/VIS/NIR Spectrometer (Lambda 900, Perkin Elmer) between 200 and 1000 nm.

Series [8] relates to lens capsule. Description: Staining of lens capsule removed during intraocular surgery. The note with it: concentrations of 0.5% or less; dye removed after one minute. As for the experimental part:
as §2

Regarding `CCN(Cc1cccc(S(=O)(=O)O)c1)c1ccc(C(=C2C=CC(=[N+](CC)Cc3cccc(S(=O)(=O)O)c3)C=C2)c2ccc(S(=O)(=O)O)cc2)cc1.[Na+].[Na+]` [Light green SF], the “cell viability, nuclei of nonviable cells labeled with propidium iodide” value (from here on “cell viability, nuclei”) with primary RPE cells [1] and in the series with ARPE-19 cells [3] was “significantly affect cell viability” each time. Further, the “toxicity of 0.02% in comparison to the 0.2% dye solution” value in the series on primary RPE cells [1] and with ARPE-19 cells [3] was “far less toxic” each time. Moreover, the “staining of ERM” value in series [2] was “weak staining”. Further, the “staining of the lens capsule in porcine eyes” value (“staining of the lens capsule” for short) in the series on lens capsule [4] is reported as “weak staining effects”. The “cell survival of ARPE-19 cells (MTT)” value in the series with ARPE-19 cells [5] is on record as “no significant impact on cell survival”. Besides, the “cell survival of primary RPE cells (MTT)” value in the series on primary RPE cells [6] was “no influence on cell survival”. Besides, the “staining effect of the vitreous” value in the series on vitreous (dye concentration 0.2%) and in the series with vitreous (dye concentration 2.0%) was “strong” in each case. Moreover, the “position of the long wavelength maximum, influence of dye concentration” value in series [7] is “not influenced by the dye concentration”. For the same compound, the “staining effect in removed lens capsule material” value with lens capsule [8] is listed as “did not stain lens capsule sufficiently”.

As to Chicago blue, the “cell viability, nuclei” value in the series on primary RPE cells [1] and in the series on ARPE-19 cells [3] was “significantly affect cell viability” throughout. Besides, the “staining of the lens capsule” value in the series with lens capsule [4] was “stained well”. In addition, the “cell survival of ARPE-19 cells (MTT)” value with ARPE-19 cells [5] is “no significant impact on cell survival”. Moreover, in the series on primary RPE cells [6], the “cell survival of primary RPE cells (MTT)” value is “no influence on cell survival”. The “staining effect of the vitreous” value in the series on vitreous (dye concentration 0.2%) was “weak”; in the series with vitreous (dye concentration 2.0%) it was “strong”. In addition, the “position of the long wavelength maximum, influence of dye concentration” value in series [7] is listed as “not influenced by the dye concentration”.

Consider “Copperphtalocyanine-3,4′,4″,4′″-tetrasulphonic acid tetrasodium salt [E68]”, for which the “cell viability, nuclei” value with primary RPE cells [1] and in the series with ARPE-19 cells [3] was “did not affect cell survival” throughout. Moreover, the “staining of the lens capsule” value in the series on lens capsule [4] is given as “stained well”. Also, the “staining effect of the vitreous” value in the series with vitreous (dye concentration 0.2%) is given as “weak”; in the series on vitreous (dye concentration 2.0%) it was “strong”.
